The results in this text go back to publication PMC10527514 (Gastroenterology, 2023).

Common to all, as to assay type: cell-based
For one experiment, the target named is T1, PPARα (Homo sapiens, UniProt Q07869).
T1 sequence (Q07869 1-468): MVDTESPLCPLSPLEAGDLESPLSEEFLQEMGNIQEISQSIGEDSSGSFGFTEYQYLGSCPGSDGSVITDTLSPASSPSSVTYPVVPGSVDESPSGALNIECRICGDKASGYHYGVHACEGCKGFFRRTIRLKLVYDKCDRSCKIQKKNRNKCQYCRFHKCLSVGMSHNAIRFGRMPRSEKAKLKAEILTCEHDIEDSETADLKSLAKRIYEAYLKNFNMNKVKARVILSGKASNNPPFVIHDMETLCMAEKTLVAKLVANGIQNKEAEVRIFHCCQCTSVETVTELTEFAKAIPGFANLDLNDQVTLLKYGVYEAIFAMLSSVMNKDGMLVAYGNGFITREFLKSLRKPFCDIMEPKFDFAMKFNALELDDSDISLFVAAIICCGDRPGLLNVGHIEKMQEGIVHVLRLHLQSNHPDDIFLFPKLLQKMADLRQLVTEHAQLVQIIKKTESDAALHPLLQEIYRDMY
In words: PathHunter nuclear hormone receptor cell assay, chemiluminescence.

The next experiment deals with GPR84 (Homo sapiens, UniProt Q9NQS5). The experiment is described as follows: Hit Hunter cAMP assay in cAMP Hunter cells. In general terms: Cyclic AMP is a second messenger, typically raised through Gs and lowered through Gi signalling.
A further experiment deals with T2, PPARγ (Homo sapiens, UniProt P37231).
T2 sequence (P37231 1-505): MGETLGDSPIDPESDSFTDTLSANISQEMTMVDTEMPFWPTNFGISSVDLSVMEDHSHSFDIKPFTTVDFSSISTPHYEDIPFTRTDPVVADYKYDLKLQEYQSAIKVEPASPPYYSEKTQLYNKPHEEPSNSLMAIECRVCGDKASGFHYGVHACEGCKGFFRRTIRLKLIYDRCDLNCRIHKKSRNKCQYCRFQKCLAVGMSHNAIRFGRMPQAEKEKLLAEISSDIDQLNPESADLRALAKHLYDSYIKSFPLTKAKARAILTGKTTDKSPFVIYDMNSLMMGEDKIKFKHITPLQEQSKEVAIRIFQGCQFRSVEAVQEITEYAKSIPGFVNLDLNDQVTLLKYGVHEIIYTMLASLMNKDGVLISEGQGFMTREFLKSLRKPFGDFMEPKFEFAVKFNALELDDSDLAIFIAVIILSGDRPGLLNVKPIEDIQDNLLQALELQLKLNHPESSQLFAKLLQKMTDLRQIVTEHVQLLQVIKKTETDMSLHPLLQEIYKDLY
The experiment is described as follows: PathHunter nuclear hormone receptor cell assay, chemiluminescence.

Molecules are shown by their SMILES.

GPR84, sequence (Q9NQS5 whole entry): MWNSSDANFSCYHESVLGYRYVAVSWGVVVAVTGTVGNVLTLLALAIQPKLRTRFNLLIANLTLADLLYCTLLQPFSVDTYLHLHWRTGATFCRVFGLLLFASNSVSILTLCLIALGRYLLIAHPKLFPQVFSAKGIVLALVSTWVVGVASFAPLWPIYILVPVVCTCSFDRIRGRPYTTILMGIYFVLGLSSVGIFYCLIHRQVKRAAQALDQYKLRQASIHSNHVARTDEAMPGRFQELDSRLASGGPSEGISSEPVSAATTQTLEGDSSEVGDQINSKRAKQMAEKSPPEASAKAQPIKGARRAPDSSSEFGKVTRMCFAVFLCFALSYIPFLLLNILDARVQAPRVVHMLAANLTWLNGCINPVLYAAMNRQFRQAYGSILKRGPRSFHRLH

In general, EC50 refers to the concentration giving half of the maximal effect. Low readings indicate higher potency in that assay, high ones lower potency in that assay. `CCCCCOc1cccc(C(=O)O)c1C` [SEFA-6179]: the EC50 at PPARα is 4.4 µM; at GPR84, 12 µM; on PPARγ, 40 µM.
